This is an account of results in ChEMBL document CHEMBL1130694, “Selective chemical modifications of polymyxin B” (Bioorg Med Chem Lett, 1998).

Values after ≈ are worked out from the molar mass of the structure shown.

One data set deals with Escherichia coli. The data set can be described thus: Compound was tested for antibacterial activity against Escherichia coli organism. Format: functional.
The next data set is filed under the species Mus musculus. The data set can be described thus: Compound was tested for protection against Pseudomonas infection in mice. The settings on record: read-out: PD50. Format: functional.
Another data set deals with Staphylococcus. The experiment in a line: Compound was tested for antibacterial activity against Staphylococcus organism. Format: functional.
Data set [1] is described as follows: Ratio of LD50 to PD50 was evaluated. Format: ADME, organism-based. The settings on record: mouse, in vivo.
Data set [2] can be described thus: Compound was tested for acute toxicity in mice upon intravenous administration. The settings on record: mouse, in vivo. The format is organism-based.
For another data set, the system named is Pseudomonas. The experiment in a line: Compound was tested for antibacterial activity against Pseudomonas organism. Format: functional.

As a reminder, the MIC is the smallest concentration in the dilution series that meets the test's criterion for growth inhibition. As a reminder, the LD50 is the dose at which mortality reaches 50%.

For the compound `CC(C)CCCCC(=O)N[C@@H](CCN)C(=O)N[C@H](C(=O)N[C@@H](CCN)C(=O)N[C@H]1CCNC(=O)[C@H]([C@@H](C)O)NC(=O)[C@H](CCNC(=O)[C@@H](N)C[C@H](CCN)C(=O)OCc2ccccc2)NC(=O)[C@H](CCN)NC(=O)[C@H](CC(C)C)NC(=O)[C@@H](Cc2ccccc2)NC(=O)[C@H](CCN)NC1=O)[C@@H](C)O`, the minimal inhibitory concentration (MIC) against Escherichia coli is 0.146 µg/mL (≈ 0.101 µM); against Staphylococcus, 0.445 µg/mL (≈ 0.307 µM); in the data set on Pseudomonas, 0.087 µg/mL (≈ 0.0599 µM). Also, the ED50 in the data set listed under Mus musculus was found to be 2 mg/kg. In addition, the selectivity ratio in data set [1] is 6.5. This compound also registered an LD50 in data set [2] of 13 mg/kg.
On to `CC(C)CCCCC(=O)N[C@@H](CCN)C(=O)N[C@H](C(=O)N[C@@H](CCN)C(=O)N[C@H]1CCNC(=O)[C@H]([C@@H](C)O)NC(=O)[C@H](CCNC(=O)[C@@H](N)Cc2ccc(O)cc2)NC(=O)[C@H](CCN)NC(=O)[C@H](CC(C)C)NC(=O)[C@@H](Cc2ccccc2)NC(=O)[C@H](CCN)NC1=O)[C@@H](C)O`, for which the MIC was determined as 0.175 µg/mL (≈ 0.129 µM) with Escherichia coli, 2.2 µg/mL (≈ 1.63 µM) with Staphylococcus and 0.073 µg/mL (≈ 0.054 µM) in the data set with Pseudomonas. The ED50 in the data set listed under Mus musculus turned out to be 2.2 mg/kg. Further, in data set [1], the selectivity ratio was 8.6. In addition, in data set [2], the median lethal dose (LD50) was 19 mg/kg.
For `CCCCCCC(N)C(=O)NCC[C@@H]1NC(=O)[C@H](CCN)NC(=O)[C@H](CC(C)C)NC(=O)[C@@H](Cc2ccccc2)NC(=O)[C@H](CCN)NC(=O)[C@@H](NC(=O)[C@H](CCN)NC(=O)[C@@H](NC(=O)[C@H](CCN)NC(=O)CCCCC(C)C)[C@@H](C)O)CCNC(=O)[C@H]([C@@H](C)O)NC1=O` (stereo partly drawn), the MIC with Escherichia coli is 0.225 µg/mL (≈ 0.169 µM); against Staphylococcus it was 0.561 µg/mL (≈ 0.422 µM); with Pseudomonas, 0.051 µg/mL (≈ 0.0383 µM). In the data set listed under Mus musculus, the ED50 was 7 mg/kg. Further, the selectivity ratio in data set [1] is 1.7. In data set [2], this compound came in with an LD50 of 12 mg/kg.
